In US20120177693A1, “DEEP LUNG PULMONARY DELIVERY OF TREPROSTINIL” (Aradigm Corporation, priority 2008, published 2012):

Assays:
[1] = Safety and tolerability of inhaled treprostinil sodium (adverse events, laboratory, vital signs, ECG, spirometry), 14 healthy male subjects
[2] = Venous plasma pharmacokinetics of inhaled treprostinil via AERx Essence or Nebu-Tec Optineb, 14 healthy male subjects
Protocol: On each of two dosing days, eligible subjects underwent dosing with ^99mTc-labeled treprostinil sodium using either the AERx Essence System or the Nebu-Tec Optineb nebulizer. Following their initial study dose, subjects underwent a washout period of approximately 48 hours before completing a second (crossover) study dose.
Immediately following each study dose, subjects underwent gamma scintigraphy and multiple samplings of venous blood to characterize treprostinil lung deposition and plasma pharmacokinetics.
To evaluate treprostinil plasma pharmacokinetics, 16 venous blood samples were drawn into 7.5 ml Potassium EDTA monovette tubes following each study dose (i.e., Essence and Optineb). Sampling occurred approximately 1 hour prior to dosing and at +2, +3, +5, +7, +10, +15, +20, +30, +60, +90, +120, +180, +240, +300, and +360 minutes after the start of each study dose. Thus, a total of 32 blood samples (˜250 mL) were collected for pharmacokinetic assessment over the two dosing days. Immediately upon sampling the sample was identified with a bar coded label bearing details of study number, subject number, sampling time point, sample type and a unique 9 digit identification number. The sample was separated by centrifugation at 1500×g and 4° C. for 10 minutes. Two equal aliquots of plasma/serum were transferred to 2 polypropylene tubes labelled identically to the original blood sample and stored at approximately −20° C. pending analysis. The time at which samples were taken, received into the separating room and placed in the freezer was recorded in the study documentation.
The pharmacokinetic parameters Cmax, AUCT and AUCI were normalised for the dose delivered to the lung, as determined from the scintigraphy data (Tables 14.2.1.5 & 14.2.1.6).

[3] = dose-normalised for the calculated dose to lung
[4] = via AERx, Geometric LS means, dose-normalised for the calculated dose to lung (μg)

## CCCCC[C@H](O)CC[C@@H]1[C@H]2Cc3cccc(OCC(=O)[O-])c3C[C@H]2C[C@H]1O.[Na+] [treprostinil, (1R,2R,3aS,9aS)-[[2,3,3a,4,9,9a-Hexahydro-2-hydroxyl-1-[(3S)-3-hydroxyoctyl]-1H-benz[f]inden-5-yl]oxy]acetic acid monosodium salt]
[1]; biochemistry, hematology, urinalysis
  Changes in laboratory parameters: no clinically-significant changes
[1]; both devices
  Serious Adverse Events (SAE's) or Suspected Unexpected Serious Adverse Reactions (SUSAR's): no Serious Adverse Events
[1]; for inhalation
  Tolerability in healthy subjects: well-tolerated
[1]; human, in vivo
  Changes in laboratory parameters, physical examination, vital signs, respiratory function or ECGs: no clinically-significant changes
[1]; human, in vivo, po
  Changes in vital signs (blood pressure, pulse and oral temperature): no clinically-significant changes
[1]; via AERx Essence
  Number of Subjects (% brackets) with […]: 0
[1]; via Nebu-Tec Optineb
  Number of Subjects (% brackets) with […]: 1 (7.1)
  Number of Subjects with […], relationship POSSIBLE: 0
  Number of Subjects with […], relationship PROBABLE: 0
  Number of Subjects with […], relationship UNLIKELY: 1
[2]; Wilcoxon Matched Pairs Test
  Tmax, Median Diff. AERx vs Nebu-Tec: 11.5 min
[2]; [3]
  Dose-normalised AUCI, AERx/Nebu-Tec Ratio of geometric LS means: 101.79%
  Dose-normalised AUCT, AERx/Nebu-Tec Ratio of geometric LS means: 103.24%
[2]; dose-normalised for the calculated dose to lung, monosodium salt
  Dose-normalised Cmax, AERx/Nebu-Tec Ratio of geometric LS means: 61.51%
[2]; human, plasma, inhaled, Tmax, one subject in the nebulizer arm with delayed Tmax
  Tmax: ~20 min
[2]; male, human, plasma, inhaled, 19.58 μg
  AUC: 0.53 ng·h/mL
[2]; male, human, plasma, inhaled, 19.58 μg, AUCINF—obs, via Optineb, GM
  AUC(0-inf): 0.533 ng·h/mL
[2]; male, human, plasma, inhaled, 19.58 μg, AUCINF—obs, via Optineb, Median
  AUC(0-inf): 0.546 ng·h/mL
[2]; male, human, plasma, inhaled, 19.58 μg, AUCT, via Nebu-Tec, Geometric LS means
  AUC(0-t): 0.51 ng·h/mL
[2]; male, human, plasma, inhaled, 19.58 μg, AUClast, via Optineb, GM
  AUC(0-t): 0.51 ng·h/mL
[2]; male, human, plasma, inhaled, 19.58 μg, AUClast, via Optineb, Median
  AUC(0-t): 0.531 ng·h/mL
[2]; male, human, plasma, inhaled, 19.58 μg, Cmax, via Nebu-Tec, Geometric LS means
  Cmax: 0.71 ng/mL
[2]; male, human, plasma, inhaled, 19.58 μg, Cmax, via Optineb, GM (geometric mean)
  Cmax: 0.707 ng/mL
[2]; male, human, plasma, inhaled, 19.58 μg, Cmax, via Optineb, Median
  Cmax: 0.696 ng/mL
[2]; male, human, plasma, inhaled, 19.58 μg, T1/2, via Optineb, GM
  half-life: 38.5 min
[2]; male, human, plasma, inhaled, 19.58 μg, T1/2, via Optineb, Median
  half-life: 37.3 min
[2]; male, human, plasma, inhaled, 19.58 μg, Tmax, via Nebu-Tec, Median
  Tmax: 8.5 min
[2]; male, human, plasma, inhaled, 19.58 μg, Tmax, via Optineb, Median
  Tmax: 8.52 min
[2]; male, human, plasma, inhaled, 26 μg, AUCINF—obs, via AERx, GM
  AUC(0-inf): 0.731 ng·h/mL
[2]; male, human, plasma, inhaled, 26 μg, AUCINF—obs, via AERx, Median
  AUC(0-inf): 0.767 ng·h/mL
[2]; male, human, plasma, inhaled, 26 μg, AUClast, via AERx, GM
  AUC(0-t): 0.709 ng·h/mL
[2]; male, human, plasma, inhaled, 26 μg, AUClast, via AERx, Median
  AUC(0-t): 0.749 ng·h/mL
[2]; male, human, plasma, inhaled, 26 μg, Cmax, via AERx, GM (geometric mean)
  Cmax: 0.586 ng/mL
[2]; male, human, plasma, inhaled, 26 μg, Cmax, via AERx, Median
  Cmax: 0.548 ng/mL
[2]; male, human, plasma, inhaled, 26 μg, T1/2, via AERx, GM
  half-life: 46.3 min
[2]; male, human, plasma, inhaled, 26 μg, T1/2, via AERx, Median
  half-life: 43.6 min
[2]; male, human, plasma, inhaled, 26 μg, Tmax, via AERx, Median
  Tmax: 25 min
[2]; male, human, plasma, inhaled, 26.07 μg
  AUC: 0.73 ng·h/mL
[2]; male, human, plasma, inhaled, 26.07 μg, AUCT, via AERx, Geometric LS means
  AUC(0-t): 0.71 ng·h/mL
[2]; male, human, plasma, inhaled, 26.07 μg, Cmax, via AERx, Geometric LS means
  Cmax: 0.59 ng/mL
[2]; male, human, plasma, inhaled, 26.07 μg, Tmax, via AERx, Median
  Tmax: 25 min
[2]; male, human, plasma, inhaled, 2 AERx strips
  Vd/F: 44 L
[2]; male, human, plasma, inhaled, 2 AERx strips, AUCINF—obs (AUCI), via AERx, Mean
  AUC(0-inf): 0.762 ng·h/mL
[2]; male, human, plasma, inhaled, 2 AERx strips, AUClast (AUCT), via AERx, Mean
  AUC(0-t): 0.742 ng·h/mL
[2]; male, human, plasma, inhaled, 2 AERx strips, Cmax, via AERx, Mean
  Cmax: 0.64 ng/mL
[2]; male, human, plasma, inhaled, 2 AERx strips, T1/2 (elimination half life), via AERx, Mean
  half-life: 52.2 min
[2]; male, human, plasma, inhaled, 2 AERx strips, Tmax, via AERx, Mean
  Tmax: 20.6 min
[2]; male, human, plasma, inhaled, 6 puffs
  Vd/F: 36 L
[2]; male, human, plasma, inhaled, 6 puffs, AUCINF—obs (AUCI), via Optineb, Mean
  AUC(0-inf): 0.553 ng·h/mL
[2]; male, human, plasma, inhaled, 6 puffs, AUClast (AUCT), via Optineb, Mean
  AUC(0-t): 0.531 ng·h/mL
[2]; male, human, plasma, inhaled, 6 puffs, Cmax, via Optineb, Mean
  Cmax: 0.762 ng/mL
[2]; male, human, plasma, inhaled, 6 puffs, T1/2 (elimination half life), via Optineb, Mean
  half-life: 40.1 min
[2]; male, human, plasma, inhaled, 6 puffs, Tmax, via Optineb, Mean
  Tmax: 8.94 min
[2]; male, human, plasma, inhaled, TMAX, via AERx Essence System, mean
  Tmax: 21 min
[2]; male, human, plasma, inhaled, TMAX, via nebulizer (Nebu-Tec OPTINEB), mean
  Tmax: 9 min
[2]; not dose adjusted
  AUCI, AERx/Nebu-Tec Ratio of geometric LS means: 137.15%
  AUCT, AERx/Nebu-Tec Ratio of geometric LS means: 139.11%
  Cmax, AERx/Nebu-Tec Ratio of geometric LS means: 82.88%
[2]; via AERx, GM
  Cmax_D: 0.023 ng/mL/µg
  Vz_F_obs: 38614.996 mL
[2]; [4]
  Dose-normalised AUCI: 0.029 ng·h/mL
  Dose-normalised AUCT: 0.028 ng·h/mL
  Dose-normalised Cmax: 0.023 ng/mL
[2]; via AERx, Max
  AUCINF—obs: 1.205 ng·h/mL
  AUClast: 1.196 ng·h/mL
  Cmax: 1.347 ng/mL
  Cmax_D: 0.044 ng/mL/µg
  T1/2: 163.9 min
  Tmax: 30 min
  Vz_F_obs: 133550.416 mL
